Measurements from patent US20220281821A1, “INDAZOLE COMPOUNDS AND THEIR PHARMACEUTICAL COMPOSITIONS” (Jinan University, priority 2019, published 2022).

Columns and labels:
TRKA = biological target: T1, TRKA (Homo sapiens, UniProt P04629); test: Z′-LYTE kinase activity assay, TRKA; type: biochemical; conditions: ATP 400 uM
T1 construct: purchased life technologies PV3144
Source text: (§1) Kinase activity assay: Z′-LYTE™ technology (detection by fluorescence, enzyme-conjugated format, based on the difference in sensitivity of phosphorylated and non-phosphorylated peptides to proteolytic cleavage) was applied, and using the principle of fluorescence resonance energy transfer (FRET), a Z′-LYTE™ FRET peptide substrate (Z′-LYTE™ Tyrosine 1 Peptide Substrate, Invitrogen, PV3190), and a secondary reaction were used to detect the inhibitory activity of the compounds on TRKs (TRK1, TRK2, TRK3) (life technologies, PV3144, PV3616, PV3617).
(§2) Enzymatic reaction: In a 384-well plate, 5 μL of an enzyme-substrate system (50 mM HEPES pH 7.5, 0.01% BRIJ-35, 10 mM MgCl2, 1 mM EGTA, 2 μM Tyr 01 Peptide Substrate) was added and 5 nL of compound (concentration gradient) was transferred thereto by using the echo520 ultramicro liquid pipetting system. […] After shaking and mixing, centrifuging was performed. A reaction was carried out at 30° C. in the dark for 1.5 hours.
(§3) The data were analyzed as follows:
(§4) Phosphorylation ratio=1−{(emission ratio×F100%−C100%)/[C0%−C100%+emission ratio×(F100%−F0%)]}×100;
(§5) Inhibition rate=100×(1−compound phosphorylation ratio/negative control phosphorylation ratio).
(§6) IC50 values were calculated by using GraphPad Prism 5.0 software.

BaF3-ETV6-NTRK3 = biological target: T2, BaF3-ETV6-NTRK3 (Homo sapiens, UniProt Q16288); test: Cell proliferation inhibition (CCK-8), BaF3-ETV6-NTRK3 stable strain; type: cell-based, mouse; conditions: BaF3-ETV6-NTRK3, 72 hours
T2 construct: fused on or other part: P41212 (Transcription factor ETV6)
In short: (§7)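 Ba/F3 cells stably electroporated with ETV6-NTRK3, CD74-NTRK1 or ETV6-NTRK2, selected with G418 and grown without IL3, then cloned by limiting dilution.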

BaF3-ETV6-NTRK2 = biological target: T3, BaF3-ETV6-NTRK2 (Homo sapiens, UniProt Q16620); test: Cell proliferation inhibition (CCK-8), BaF3-ETV6-NTRK2 stable strain; type: cell-based, mouse; conditions: BaF3-ETV6-NTRK2, 72 hours
T3 construct: fused on or other part: P41212 (Transcription factor ETV6)
In short: as §7

BaF3-CD74-NTRK1 = biological target: T4, BaF3-CD74-NTRK1 (Homo sapiens, UniProt P04629); test: Cell proliferation inhibition (CCK-8), BaF3-CD74-NTRK1 stable strain; type: cell-based, mouse; conditions: BaF3-CD74-NTRK1, 72 hours
T4 construct: fused on or other part: P04233 (HLA class II histocompatibility antigen gamma chain)
In short: as §7

TRKC = biological target: T5, TRKC (Homo sapiens, UniProt Q16288); test: Z′-LYTE kinase activity assay, TRKC; type: biochemical; conditions: ATP 50 uM
T5 construct: purchased life technologies PV3617
Source text: as §1, §2, §3, §6

TRKB = biological target: T6, TRKB (Homo sapiens, UniProt Q16620); test: Z′-LYTE kinase activity assay, TRKB; type: biochemical; conditions: ATP 25 uM
T6 construct: purchased life technologies PV3616
Source text: as §1, §2, §3, §4, §5, §6

T2 sequence (Q16288 whole entry, the tested form may be a part): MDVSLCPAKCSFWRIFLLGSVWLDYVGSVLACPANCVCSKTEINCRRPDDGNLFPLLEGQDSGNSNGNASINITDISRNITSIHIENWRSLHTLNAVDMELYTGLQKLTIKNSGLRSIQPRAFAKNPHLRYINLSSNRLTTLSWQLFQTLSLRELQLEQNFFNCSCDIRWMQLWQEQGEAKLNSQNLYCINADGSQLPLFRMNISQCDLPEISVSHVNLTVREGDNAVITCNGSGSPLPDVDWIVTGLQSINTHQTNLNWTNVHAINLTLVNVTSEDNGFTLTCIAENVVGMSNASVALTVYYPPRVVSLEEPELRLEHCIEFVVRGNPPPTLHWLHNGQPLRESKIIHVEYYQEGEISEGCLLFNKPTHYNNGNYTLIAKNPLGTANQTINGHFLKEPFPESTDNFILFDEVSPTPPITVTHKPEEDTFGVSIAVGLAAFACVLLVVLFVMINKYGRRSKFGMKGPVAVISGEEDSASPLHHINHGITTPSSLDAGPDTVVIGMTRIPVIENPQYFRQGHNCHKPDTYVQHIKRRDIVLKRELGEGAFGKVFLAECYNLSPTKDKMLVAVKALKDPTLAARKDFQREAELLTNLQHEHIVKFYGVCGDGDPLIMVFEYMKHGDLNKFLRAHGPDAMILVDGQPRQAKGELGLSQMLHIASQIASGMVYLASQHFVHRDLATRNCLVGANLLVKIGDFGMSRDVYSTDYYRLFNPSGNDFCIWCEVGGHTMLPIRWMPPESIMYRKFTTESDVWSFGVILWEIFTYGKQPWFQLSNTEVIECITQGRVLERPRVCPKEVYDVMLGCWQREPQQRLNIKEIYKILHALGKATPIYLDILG
T5 sequence (Q16288 32-839): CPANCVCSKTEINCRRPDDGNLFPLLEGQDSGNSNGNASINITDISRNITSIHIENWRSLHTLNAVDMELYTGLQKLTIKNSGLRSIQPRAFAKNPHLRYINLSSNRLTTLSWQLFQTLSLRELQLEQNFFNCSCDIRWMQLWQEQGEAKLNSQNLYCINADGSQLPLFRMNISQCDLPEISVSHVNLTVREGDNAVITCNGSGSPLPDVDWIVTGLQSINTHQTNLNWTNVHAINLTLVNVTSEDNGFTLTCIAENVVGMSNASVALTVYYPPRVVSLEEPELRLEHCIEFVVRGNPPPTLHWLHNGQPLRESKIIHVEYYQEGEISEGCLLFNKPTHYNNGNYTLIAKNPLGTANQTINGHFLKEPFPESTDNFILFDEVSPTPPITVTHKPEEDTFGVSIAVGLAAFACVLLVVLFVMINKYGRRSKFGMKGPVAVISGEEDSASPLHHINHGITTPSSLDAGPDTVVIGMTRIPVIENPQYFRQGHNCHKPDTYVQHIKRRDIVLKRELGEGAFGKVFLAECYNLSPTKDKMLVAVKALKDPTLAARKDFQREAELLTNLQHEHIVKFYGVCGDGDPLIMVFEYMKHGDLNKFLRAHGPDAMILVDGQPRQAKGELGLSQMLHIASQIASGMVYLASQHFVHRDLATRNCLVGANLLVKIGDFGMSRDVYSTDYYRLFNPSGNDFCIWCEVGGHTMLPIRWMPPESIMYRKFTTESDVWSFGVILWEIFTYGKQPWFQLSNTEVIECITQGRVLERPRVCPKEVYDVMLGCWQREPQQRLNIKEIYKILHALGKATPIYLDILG
T6 sequence (Q16620 32-822): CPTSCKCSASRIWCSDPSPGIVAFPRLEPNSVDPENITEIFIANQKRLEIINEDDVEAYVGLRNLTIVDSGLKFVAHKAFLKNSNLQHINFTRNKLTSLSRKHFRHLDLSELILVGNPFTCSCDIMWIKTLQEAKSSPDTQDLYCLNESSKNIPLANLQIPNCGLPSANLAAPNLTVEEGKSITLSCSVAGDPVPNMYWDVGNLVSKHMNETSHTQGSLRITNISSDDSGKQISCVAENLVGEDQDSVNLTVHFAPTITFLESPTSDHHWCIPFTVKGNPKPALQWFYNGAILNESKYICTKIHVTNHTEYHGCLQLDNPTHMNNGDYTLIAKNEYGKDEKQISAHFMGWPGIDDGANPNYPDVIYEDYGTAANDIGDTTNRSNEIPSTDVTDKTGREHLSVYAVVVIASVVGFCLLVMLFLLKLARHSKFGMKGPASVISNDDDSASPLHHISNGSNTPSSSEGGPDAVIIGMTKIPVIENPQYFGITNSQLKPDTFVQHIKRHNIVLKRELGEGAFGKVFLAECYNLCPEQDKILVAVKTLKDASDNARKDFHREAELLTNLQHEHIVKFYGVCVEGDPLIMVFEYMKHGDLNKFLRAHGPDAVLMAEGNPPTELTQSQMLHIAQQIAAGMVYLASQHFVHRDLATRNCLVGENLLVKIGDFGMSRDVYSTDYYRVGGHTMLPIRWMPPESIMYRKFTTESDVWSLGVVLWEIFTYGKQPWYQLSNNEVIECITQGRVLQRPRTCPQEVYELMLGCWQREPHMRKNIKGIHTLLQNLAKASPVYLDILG
T1 sequence (P04629 440-796 limits assumed): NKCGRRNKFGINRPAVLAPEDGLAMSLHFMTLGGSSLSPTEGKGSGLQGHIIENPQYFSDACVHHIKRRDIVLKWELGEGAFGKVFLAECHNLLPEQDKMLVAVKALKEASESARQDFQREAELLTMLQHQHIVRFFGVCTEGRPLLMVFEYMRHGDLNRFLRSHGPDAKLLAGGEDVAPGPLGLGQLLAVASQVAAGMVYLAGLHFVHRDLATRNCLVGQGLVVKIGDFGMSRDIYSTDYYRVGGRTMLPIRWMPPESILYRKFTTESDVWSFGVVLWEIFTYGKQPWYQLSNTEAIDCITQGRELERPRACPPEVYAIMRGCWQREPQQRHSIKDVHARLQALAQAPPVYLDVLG
T3 sequence (Q16620 538-822 limits assumed): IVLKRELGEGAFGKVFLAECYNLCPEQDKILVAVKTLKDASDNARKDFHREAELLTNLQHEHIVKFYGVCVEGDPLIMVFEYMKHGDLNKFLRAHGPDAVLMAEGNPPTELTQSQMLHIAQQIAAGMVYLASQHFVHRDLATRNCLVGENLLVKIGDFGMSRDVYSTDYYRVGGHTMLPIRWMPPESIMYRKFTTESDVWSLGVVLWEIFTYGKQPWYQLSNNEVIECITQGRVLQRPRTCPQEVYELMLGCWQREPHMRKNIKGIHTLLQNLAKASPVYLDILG
T4 sequence (P04629 510-796 limits assumed): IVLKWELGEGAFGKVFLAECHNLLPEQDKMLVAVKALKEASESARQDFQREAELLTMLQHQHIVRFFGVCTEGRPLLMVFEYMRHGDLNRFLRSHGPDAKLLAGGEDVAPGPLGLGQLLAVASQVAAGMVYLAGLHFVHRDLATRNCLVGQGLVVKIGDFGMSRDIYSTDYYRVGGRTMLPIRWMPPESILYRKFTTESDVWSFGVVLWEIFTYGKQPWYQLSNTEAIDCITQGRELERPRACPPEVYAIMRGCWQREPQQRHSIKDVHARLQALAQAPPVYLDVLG

| Compound | IC50 (TRKA) [nM] | IC50 (BaF3-ETV6-NTRK3) [nM] | IC50 (BaF3-ETV6-NTRK2) [nM] | IC50 (BaF3-CD74-NTRK1) [nM] | IC50 (TRKC) [nM] | IC50 (TRKB) [nM] |
| --- | --- | --- | --- | --- | --- | --- |
| Fc1cccc(F)c1Cc1ccc2[nH]nc(C#Cc3ccccn3)c2c1 [DYX-071, 5-(2,6-difluorobenzyl)-3-(pyridin-2-ylethynyl)-1H-indazole] | 217 | 2740 | 2890 | 7730 | 113 | 385 |
| Clc1cccc(Cc2ccc3[nH]nc(/C=C/c4ccccn4)c3c2)c1 [DYX-134X, (E)-5-(3-chlorobenzyl)-3-(2-(pyridin-2-yl)vinyl)-1H-indazole] | 70.9 | 846 | 1880 | 2360 | 28.3 | 211 |
| Fc1cc(F)cc(Cc2ccc3[nH]nc(/C=C/c4ccccc4)c3c2)c1 [DYX-07, (E)-5-(3,5-difluorobenzyl)-3-styryl-1H-indazole] | 10.6 | 284 | 968 | 211 | 104 | 40.3 |
| Fc1ccccc1Cc1ccc2[nH]nc(/C=C/c3ccccn3)c2c1 [DYX-032, (E)-5-(2-fluorobenzyl)-3-(2-(pyridin-2-yl)vinyl)-1H-indazole] | 14.5 | 718 | 2340 | 1920 | 12 | 56.1 |
| FC(F)(F)c1cccc(Cc2ccc3[nH]nc(/C=C/c4ccccn4)c3c2)c1 [DYX-138X, (E)-3-(2-(pyridin-2-yl)vinyl)-5-(3-(trifluoromethyl)benzyl)-1H-indazole] | 757 | > 10000 | 4080 | 6650 | 262 | 356 |
| Fc1cc(F)cc(COc2ccc3[nH]nc(C#Cc4ccccn4)c3c2)c1 [DYX-131, 5-((3,5-difluorobenzyl)oxo)-3-(pyridin-2-ylethynyl)-1H-indazole] | 31.3 | 2210 | 1610 | 2900 | 20 | 71.3 |
| N#Cc1cccc(Cc2ccc3[nH]nc(/C=C/c4ccccn4)c3c2)c1 [DYX-136X, (E)-3-((3-(2-(pyridin-2-yl)vinyl)-1H-indazol-5-yl)methyl)benzonitrile] | 4.8 | 733 | 1070 | 603 | 5.8 | 91 |
| COc1cccc(Cc2ccc3[nH]nc(C#Cc4ccccn4)c3c2)c1 [DYX-135Q, 5-(3-methoxybenzyl)-3-(pyridin-2-ylethynyl)-1H-indazole] | 292 | > 10000 | > 10000 | > 10000 | 211 | 817 |
| Fc1cc(Cc2ccc3[nH]nc(/C=C/c4ccccn4)c3c2)cc(F)c1F [DYX-083, (E)-3-(2-(pyridin-2-yl)vinyl)-5-(3,4,5-trifluorobenzyl)-1H-indazole] | 628 | 3310 | 3020 | 7500 | 191 | > 1000 |
| O=S(=O)(c1cc(F)cc(F)c1)c1ccc2[nH]nc(C#Cc3ccccn3)c2c1 [DYX-108, 5-((3,5-difluorophenyl)sulfonyl)-3-(pyridin-2-ylethynyl)-1H-indazole] | 8.1 | 749 | 914 | 888 | 21.4 | 43.1 |
| Fc1cc(F)cc(Cc2ccc3[nH]nc(C#Cc4ccccn4)c3c2)c1 [CCB-484, 5-(3,5-difluorobenzyl)-3-(pyridin-2-ylethynyl)-1H-indazole] | 34 | 477 | 1970 | 820 | 11.8 | 83.8 |
| Fc1ccc(F)c(Cc2ccc3[nH]nc(C#Cc4ccccn4)c3c2)c1 [DYX-041, 5-(2,5-difluorobenzyl)-3-(pyridin-2-ylethynyl)-1H-indazole] | 44 | 796 | 1990 | 724 | 8 | 40 |
| Fc1cc(F)cc(Sc2ccc3[nH]nc(C#Cc4ccccn4)c3c2)c1 [DYX-086, 5-((3,5-difluorophenyl)thio)-3-(pyridin-2-ylethynyl)-1H-indazole] | 54.2 | 3710 | 2600 | 3600 | 111 | 241 |
| Fc1cc(F)cc(Sc2ccc3[nH]nc(/C=C/c4ccccn4)c3c2)c1 [DYX-090, (E)-5-((3,5-difluorophenyl)thio)-3-(2-(pyridin-2-yl)vinyl)-1H-indazole] | 9.9 | 158 | 295 | 480 | 35.7 | 79.9 |
| CN(Cc1ccc2[nH]nc(/C=C/c3ccccn3)c2c1)c1cc(F)cc(F)c1 [DYX-193, (E)-3,5-difluoro-N-methyl-N-((3-(2-(pyridin-2-yl)vinyl)-1H-indazol-5-yl)methyl)aniline] | 45.4 | 83 | 316 | 136 | 33.2 | 120 |
| Cc1cccc(Cc2ccc3[nH]nc(/C=C/c4ccccn4)c3c2)c1 [DYX-137X, (E)-5-(3-methylbenzyl)-3-(2-(pyridin-2-yl)vinyl)-1H-indazole] | 33.8 | 3180 | 3720 | 2420 | 21.9 | 80.8 |
| Fc1cc(F)cc(Cc2ccc3[nH]nc(/C=C/c4ccccn4)c3c2)c1 [CCB-489, (E)-5-(3,5-difluorobenzyl)-3-(2-(pyridin-2-yl)vinyl)-1H-indazole] | 4.6 | 56.2 | 165 | 146 | 2.7 | 14.4 |
| COc1cccc(Cc2ccc3[nH]nc(/C=C/c4ccccn4)c3c2)c1 [DYX-135X, (E)-5-(3-methoxybenzyl)-3-(2-(pyridin-2-yl)vinyl)-1H-indazole] | 49.4 | 2400 | 2980 | 2990 | 22.5 | 70.5 |
| Fc1cc(F)cc(COc2ccc3[nH]nc(/C=C/c4ccccn4)c3c2)c1 [DYX-132, (E)-5-((3,5-difluorobenzyl)oxo)-3-(2-(pyridin-2-yl)vinyl)-1H-indazole] | 3.3 | 96.2 | 178 | 156 | 3 | 9.8 |
| O=C(Nc1cc(F)cc(F)c1)c1ccc2[nH]nc(/C=C/c3ccccn3)c2c1 [DYX-171, (E)-N-(3,5-difluorophenyl)-3-(2-(pyridin-2-yl)vinyl)-1H-indazole-5-carboxamide] | 577 | 2640 | 2730 | 8040 | 532 | > 1000 |
| O=C(Nc1ccc2[nH]nc(/C=C/c3ccccn3)c2c1)c1cc(F)cc(F)c1 [DYX-164, (E)-3,5-difluoro-N-(3-(2-(pyridin-2-yl)vinyl)-1H-indazol-5-yl)benzamide] | 196 | 2240 | 2580 | 1930 | 226 | 741 |
| Fc1cc(F)cc(-c2ccc3[nH]nc(C#Cc4ccccn4)c3c2)c1 [DYX-115, 5-(3,5-difluorophenyl)-3-(pyridin-2-ylethynyl)-1H-indazole] | > 1000 | > 10000 | > 10000 | > 10000 | > 1000 | > 1000 |
| Fc1cccc(Cc2ccc3[nH]nc(C#Cc4ccccn4)c3c2)c1F [DYX-074, 5-(2,3-difluorobenzyl)-3-(pyridin-2-ylethynyl)-1H-indazole] | 72 | 2200 | 2830 | 2500 | 41 | 435 |
| Fc1ccc(F)c([C@H]2CCCN2c2ccc3[nH]nc(/C=C/c4ccccn4)c3c2)c1 [DYX-170, (R,E)-5-(2-(2,5-difluorophenyl)pyrrolidin-1-yl)-3-(2-(pyridin-2-yl)vinyl)-1H-indazole] | 8.1 | 167 | 242 | 99.4 | 1.9 | 18.4 |
| Fc1cc(F)cc(CCc2ccc3[nH]nc(/C=C/c4ccccn4)c3c2)c1 [DYX-180, (E)-5-(3,5-difluorophenethyl)-3-(2-(pyridin-2-yl)vinyl)-1H-indazole] | 3.9 | 415 | 694 | 498 | 4.7 | 9.9 |
